Measurements as given in article doi:10.1101/2023.12.04.569845, “Identification of 4-(6-((2-methoxyphenyl)amino)pyrazin-2-yl)benzoic acids as CSNK2A inhibitors with antiviral activity and improved selectivity over PIM3” (bioRxiv, 2023).
Like-named read-outs stand apart in the source and are kept apart here.

How the values were obtained:
Assay in all cases: biochemical
Parameters in all cases: Thermal shift (DSF, SYPRO Orange) Tm shift of recombinant kinase domains at 10 uM compound
[1] = target: T1, CK1d (Homo sapiens, UniProt P48730)
T1 construct: gene CSNK1D

[2] = target: T2, AurA (Homo sapiens, UniProt O14965)
T2 construct: gene AURKA
T2 sequence (O14965 1-403): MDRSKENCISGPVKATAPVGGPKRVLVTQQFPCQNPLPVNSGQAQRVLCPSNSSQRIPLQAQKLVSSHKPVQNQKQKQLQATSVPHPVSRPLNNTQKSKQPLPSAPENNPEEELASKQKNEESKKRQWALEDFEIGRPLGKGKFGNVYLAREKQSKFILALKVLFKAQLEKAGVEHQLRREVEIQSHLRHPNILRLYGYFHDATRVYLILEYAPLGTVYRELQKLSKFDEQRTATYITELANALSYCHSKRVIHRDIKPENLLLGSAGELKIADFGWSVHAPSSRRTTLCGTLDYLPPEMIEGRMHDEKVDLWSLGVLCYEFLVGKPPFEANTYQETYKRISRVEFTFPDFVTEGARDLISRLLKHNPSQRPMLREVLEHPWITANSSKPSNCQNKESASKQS

[3] = target: T3, VRK1 (Homo sapiens, UniProt Q99986)
T3 sequence (Q99986 1-396): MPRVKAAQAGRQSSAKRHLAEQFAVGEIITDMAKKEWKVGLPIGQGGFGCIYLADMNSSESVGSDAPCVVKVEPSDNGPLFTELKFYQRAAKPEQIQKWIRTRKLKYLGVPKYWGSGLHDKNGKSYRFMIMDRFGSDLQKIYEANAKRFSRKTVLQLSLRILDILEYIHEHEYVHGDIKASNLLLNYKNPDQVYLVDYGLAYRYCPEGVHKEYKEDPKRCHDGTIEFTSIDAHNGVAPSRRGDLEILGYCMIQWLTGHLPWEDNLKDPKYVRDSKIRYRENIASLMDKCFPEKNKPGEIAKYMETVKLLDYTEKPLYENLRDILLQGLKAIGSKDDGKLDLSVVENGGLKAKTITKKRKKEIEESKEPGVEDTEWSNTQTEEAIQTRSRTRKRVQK

[4] = target: CAMK1D (Homo sapiens, UniProt Q8IU85)
[5] = target: T4, MAP3K5 (Homo sapiens, UniProt Q99683)
T4 sequence (Q99683 1-1374): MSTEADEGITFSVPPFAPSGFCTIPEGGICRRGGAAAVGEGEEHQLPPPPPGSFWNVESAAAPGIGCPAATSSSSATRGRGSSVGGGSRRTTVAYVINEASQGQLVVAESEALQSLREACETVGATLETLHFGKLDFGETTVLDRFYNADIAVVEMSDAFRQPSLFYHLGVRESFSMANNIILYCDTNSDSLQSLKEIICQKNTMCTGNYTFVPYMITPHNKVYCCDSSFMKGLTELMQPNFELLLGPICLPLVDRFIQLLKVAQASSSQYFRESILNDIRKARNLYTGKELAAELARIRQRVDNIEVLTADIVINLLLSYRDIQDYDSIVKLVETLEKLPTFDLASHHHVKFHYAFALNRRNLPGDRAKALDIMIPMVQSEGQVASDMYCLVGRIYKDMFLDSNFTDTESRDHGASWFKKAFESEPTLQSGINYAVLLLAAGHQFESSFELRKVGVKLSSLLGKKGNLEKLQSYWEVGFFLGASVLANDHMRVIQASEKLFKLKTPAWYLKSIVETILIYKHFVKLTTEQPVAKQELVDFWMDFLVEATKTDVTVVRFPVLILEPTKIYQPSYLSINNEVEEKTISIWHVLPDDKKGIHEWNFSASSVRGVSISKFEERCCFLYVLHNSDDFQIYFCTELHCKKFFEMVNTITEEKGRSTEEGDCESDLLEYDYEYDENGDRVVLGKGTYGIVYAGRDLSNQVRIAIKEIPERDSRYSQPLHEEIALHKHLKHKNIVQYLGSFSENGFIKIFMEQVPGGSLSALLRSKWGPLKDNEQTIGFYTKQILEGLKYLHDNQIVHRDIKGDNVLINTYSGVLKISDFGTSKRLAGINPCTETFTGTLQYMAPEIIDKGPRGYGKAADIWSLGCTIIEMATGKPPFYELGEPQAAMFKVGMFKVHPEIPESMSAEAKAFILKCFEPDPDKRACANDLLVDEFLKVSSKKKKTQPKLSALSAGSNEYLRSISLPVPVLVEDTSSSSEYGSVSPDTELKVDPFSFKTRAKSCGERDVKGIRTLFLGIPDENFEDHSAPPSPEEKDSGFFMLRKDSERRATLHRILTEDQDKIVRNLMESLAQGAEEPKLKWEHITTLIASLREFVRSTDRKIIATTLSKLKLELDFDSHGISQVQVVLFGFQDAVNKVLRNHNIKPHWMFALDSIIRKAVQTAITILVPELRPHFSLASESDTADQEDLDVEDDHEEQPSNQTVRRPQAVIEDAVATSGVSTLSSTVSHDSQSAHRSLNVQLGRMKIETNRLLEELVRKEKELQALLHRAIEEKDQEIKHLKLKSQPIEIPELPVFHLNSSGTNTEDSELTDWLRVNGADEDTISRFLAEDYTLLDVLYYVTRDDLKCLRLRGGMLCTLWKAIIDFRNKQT

[6] = target: T5, JNK2 (Homo sapiens, UniProt P45984)
T5 construct: gene MAPK9

[7] = target: MARK3 (Homo sapiens, UniProt P27448)
[8] = target: NEK7 (Homo sapiens, UniProt Q8TDX7)
NEK7, sequence (Q8TDX7 whole entry): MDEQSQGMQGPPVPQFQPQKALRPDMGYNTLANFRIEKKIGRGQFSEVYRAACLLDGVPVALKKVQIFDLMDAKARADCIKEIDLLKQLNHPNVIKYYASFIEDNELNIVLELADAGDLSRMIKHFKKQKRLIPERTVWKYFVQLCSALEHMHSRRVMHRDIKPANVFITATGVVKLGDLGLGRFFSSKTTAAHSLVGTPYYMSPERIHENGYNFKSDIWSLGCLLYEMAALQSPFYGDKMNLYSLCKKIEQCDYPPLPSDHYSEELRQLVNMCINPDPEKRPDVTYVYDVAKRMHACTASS

MARK3, sequence (P27448 whole entry): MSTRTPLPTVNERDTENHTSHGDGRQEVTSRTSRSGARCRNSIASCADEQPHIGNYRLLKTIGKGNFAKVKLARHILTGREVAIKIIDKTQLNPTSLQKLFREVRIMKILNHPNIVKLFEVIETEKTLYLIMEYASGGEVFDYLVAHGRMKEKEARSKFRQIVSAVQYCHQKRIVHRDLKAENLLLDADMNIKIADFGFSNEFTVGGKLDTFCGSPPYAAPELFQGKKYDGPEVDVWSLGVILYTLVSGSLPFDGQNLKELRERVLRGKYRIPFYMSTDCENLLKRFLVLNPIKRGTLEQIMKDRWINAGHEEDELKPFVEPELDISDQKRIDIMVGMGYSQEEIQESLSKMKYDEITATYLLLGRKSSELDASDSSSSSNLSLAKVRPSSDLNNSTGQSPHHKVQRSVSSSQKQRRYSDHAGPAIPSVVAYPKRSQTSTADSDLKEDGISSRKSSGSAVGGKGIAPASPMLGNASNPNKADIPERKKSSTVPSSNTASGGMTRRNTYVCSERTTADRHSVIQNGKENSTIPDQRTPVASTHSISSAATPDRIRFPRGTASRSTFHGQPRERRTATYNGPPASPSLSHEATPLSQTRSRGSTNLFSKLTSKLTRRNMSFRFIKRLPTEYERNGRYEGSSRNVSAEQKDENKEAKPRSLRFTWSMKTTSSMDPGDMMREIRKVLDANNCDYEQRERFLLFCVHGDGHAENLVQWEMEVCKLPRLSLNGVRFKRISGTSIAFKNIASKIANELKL
CAMK1D, sequence (Q8IU85 whole entry): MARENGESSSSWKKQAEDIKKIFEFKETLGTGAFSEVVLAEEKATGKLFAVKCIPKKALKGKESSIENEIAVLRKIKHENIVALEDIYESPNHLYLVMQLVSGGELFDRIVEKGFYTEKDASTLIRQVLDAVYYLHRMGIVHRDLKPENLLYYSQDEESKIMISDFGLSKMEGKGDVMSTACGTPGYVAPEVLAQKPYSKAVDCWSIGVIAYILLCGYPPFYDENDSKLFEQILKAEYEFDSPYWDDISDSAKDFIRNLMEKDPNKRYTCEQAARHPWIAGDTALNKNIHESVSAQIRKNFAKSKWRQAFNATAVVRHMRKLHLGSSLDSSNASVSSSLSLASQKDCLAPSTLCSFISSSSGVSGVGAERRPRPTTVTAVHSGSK
T5 sequence (P45984 whole entry): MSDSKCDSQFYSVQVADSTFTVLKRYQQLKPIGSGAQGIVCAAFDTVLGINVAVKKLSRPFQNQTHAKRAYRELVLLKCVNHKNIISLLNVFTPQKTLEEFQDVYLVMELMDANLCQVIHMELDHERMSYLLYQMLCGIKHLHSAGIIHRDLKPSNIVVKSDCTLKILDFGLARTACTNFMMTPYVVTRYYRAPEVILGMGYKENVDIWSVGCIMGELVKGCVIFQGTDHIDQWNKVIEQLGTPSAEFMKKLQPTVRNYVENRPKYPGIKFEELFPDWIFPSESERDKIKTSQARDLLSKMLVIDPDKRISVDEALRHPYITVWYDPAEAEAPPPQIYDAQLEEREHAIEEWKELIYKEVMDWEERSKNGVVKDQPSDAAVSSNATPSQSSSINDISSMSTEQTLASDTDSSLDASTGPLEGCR
T1 sequence (P48730 whole entry): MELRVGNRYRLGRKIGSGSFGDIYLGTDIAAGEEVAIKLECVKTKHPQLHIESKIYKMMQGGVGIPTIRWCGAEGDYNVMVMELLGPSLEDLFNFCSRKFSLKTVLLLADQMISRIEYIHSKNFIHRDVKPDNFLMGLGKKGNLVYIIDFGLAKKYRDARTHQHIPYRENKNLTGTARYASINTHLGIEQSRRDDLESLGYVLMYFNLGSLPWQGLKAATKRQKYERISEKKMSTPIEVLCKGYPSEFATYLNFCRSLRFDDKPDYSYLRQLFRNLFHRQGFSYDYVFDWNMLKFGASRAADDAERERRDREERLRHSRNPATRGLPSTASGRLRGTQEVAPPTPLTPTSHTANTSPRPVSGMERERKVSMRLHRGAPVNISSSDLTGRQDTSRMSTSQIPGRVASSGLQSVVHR

## CC(C)Oc1ccc2ccn(-c3cncc(-c4ccc(C(=O)O)cc4)n3)c2c1 [6c]
[1]; read-out: 6c
  ΔTm at 10 µM: 3 °C
[2]; read-out: 6c
  ΔTm at 10 µM: 8 °C
[3]; read-out: 6c
  ΔTm at 10 µM: 0 °C
[4]; read-out: 6c
  ΔTm at 10 µM: 0 °C
[5]; read-out: 6c
  ΔTm at 10 µM: 3 °C
[6]; read-out: 6c
  ΔTm at 10 µM: 0 °C
[7]; read-out: 6c
  ΔTm at 10 µM: -1 °C
[8]; read-out: 6c
  ΔTm at 10 µM: -1 °C

## COc1ccc(OC(C)C)cc1Nc1cncc(-c2ccc(C(=O)O)cc2)n1 [7c]
[1]; read-out: 7c
  ΔTm at 10 µM: 2 °C
[2]; read-out: 7c
  ΔTm at 10 µM: 4 °C
[3]; read-out: 7c
  ΔTm at 10 µM: 0 °C
[4]; read-out: 7c
  ΔTm at 10 µM: 0 °C
[5]; read-out: 7c
  ΔTm at 10 µM: 1 °C
[6]; read-out: 7c
  ΔTm at 10 µM: 0 °C
[7]; read-out: 7c
  ΔTm at 10 µM: -1 °C
[8]; read-out: 7c
  ΔTm at 10 µM: -1 °C

## CC(C)Nc1ccc2cnn(-c3cncc(-c4ccc(C(=O)O)cc4)n3)c2c1 [compound 2, 2]
[1]; read-out: 2
  ΔTm at 10 µM: 3 °C
[2]; read-out: 2
  ΔTm at 10 µM: 10 °C
[3]; read-out: 2
  ΔTm at 10 µM: 1 °C
[4]; read-out: 2
  ΔTm at 10 µM: 2 °C
[5]; read-out: 2
  ΔTm at 10 µM: 5 °C
[6]; read-out: 2
  ΔTm at 10 µM: 1 °C
[7]; read-out: 2
  ΔTm at 10 µM: 0 °C
[8]; read-out: 2
  ΔTm at 10 µM: 0 °C
